Molecules are shown by their SMILES. Where two headings read alike, the source gives them in different places.

The nature of data set [1]: MTT cytotoxicity assay, MCF12A. Format: cell-based. As to conditions: human, MCF12A non-malignant breast epithelial cells, MTT, read-out: Cytotoxicity assays (MTT) IC50 MCF12A. The procedure:
(§1) Human estrogen-receptor positive (ER+) breast adenocarcinoma cell lines, MCF7 and T47D, were maintained in Roswell Park Memorial Institute-1640 medium (Sigma Aldrich, Missouri, USA) and the human epidermal growth factor receptor 2 positive (HER2+) BT474, and triple negative (TNBC) MDA-MB-231 and MDA-MB-468 cells were maintained in Dulbecco's Modified Eagle's Medium (DMEM) (Sigma Aldrich, Missouri, USA). […]
(§2) Cells (3.5×10^3-6×10^3 / well) were seeded in 96-well plates and treated at a 60-70 % confluence with a range of concentrations (0-10 μM) of test compounds or vehicle for 48 h. Cell viability was measured using the 3-(4,5-dimethylthiazol-2-yl)-2,5-diphenyl-trazolium bromide (MTT) assay (11465007001; Sigma Aldrich) according to the manufacturer's instructions. Mean cell viability was calculated as a percentage of the mean vehicle control. A minimum of three independent experiments in quadruplicate were performed from which the IC50 was determined from sigmoidal plots using GraphPad Prism version 6.0 (GraphPad Software, California, USA). The selectivity index (SI) was determined by dividing the IC50 of a non-malignant cell line by the IC50 of a cancer cell line. […]
(Formazan colour is commonly taken as a measure of viable cells.)

The test system of data set [2] is MCF12A (normal breast epithelial cell line). Description: MTT cytotoxicity assay, MCF12A. Format: cell-based. As to conditions: Homo sapiens, MCF-12A, 48 h, Fig 2C summary, MTT 48 h; read-out: IC50 ± SEM MCF12A. Here is the method: as §1, §2
Data set [3] concerns FG0 human skin fibroblasts. Description: MTT cytotoxicity assay, FG0. Format: cell-based. Particulars: Skin fibroblast. Here is the method:
as §1
Cells (3.5×10^3-6×10^3 / well) were seeded in 96-well plates and treated at a 60-70 % confluence with a range of concentrations (0-10 μM) of test compounds or vehicle for 48 h. Cell viability was measured using the 3-(4,5-dimethylthiazol-2-yl)-2,5-diphenyl-trazolium bromide (MTT) assay (11465007001; Sigma Aldrich) according to the manufacturer's instructions. Mean cell viability was calculated as a percentage of the mean vehicle control. A minimum of three independent experiments in quadruplicate were performed from which the IC50 was determined from sigmoidal plots using GraphPad Prism version 6.0 (GraphPad Software, California, USA). The selectivity index (SI) was determined by dividing the IC50 of a non-malignant cell line by the IC50 of a cancer cell line.

In the next data set the target is T1, PIK3C3 (Homo sapiens, UniProt Q8NEB9).
T1 construct: purchased Carna Biosciences Inc; Invitrogen Corporation
T1 sequence (Q8NEB9 whole entry): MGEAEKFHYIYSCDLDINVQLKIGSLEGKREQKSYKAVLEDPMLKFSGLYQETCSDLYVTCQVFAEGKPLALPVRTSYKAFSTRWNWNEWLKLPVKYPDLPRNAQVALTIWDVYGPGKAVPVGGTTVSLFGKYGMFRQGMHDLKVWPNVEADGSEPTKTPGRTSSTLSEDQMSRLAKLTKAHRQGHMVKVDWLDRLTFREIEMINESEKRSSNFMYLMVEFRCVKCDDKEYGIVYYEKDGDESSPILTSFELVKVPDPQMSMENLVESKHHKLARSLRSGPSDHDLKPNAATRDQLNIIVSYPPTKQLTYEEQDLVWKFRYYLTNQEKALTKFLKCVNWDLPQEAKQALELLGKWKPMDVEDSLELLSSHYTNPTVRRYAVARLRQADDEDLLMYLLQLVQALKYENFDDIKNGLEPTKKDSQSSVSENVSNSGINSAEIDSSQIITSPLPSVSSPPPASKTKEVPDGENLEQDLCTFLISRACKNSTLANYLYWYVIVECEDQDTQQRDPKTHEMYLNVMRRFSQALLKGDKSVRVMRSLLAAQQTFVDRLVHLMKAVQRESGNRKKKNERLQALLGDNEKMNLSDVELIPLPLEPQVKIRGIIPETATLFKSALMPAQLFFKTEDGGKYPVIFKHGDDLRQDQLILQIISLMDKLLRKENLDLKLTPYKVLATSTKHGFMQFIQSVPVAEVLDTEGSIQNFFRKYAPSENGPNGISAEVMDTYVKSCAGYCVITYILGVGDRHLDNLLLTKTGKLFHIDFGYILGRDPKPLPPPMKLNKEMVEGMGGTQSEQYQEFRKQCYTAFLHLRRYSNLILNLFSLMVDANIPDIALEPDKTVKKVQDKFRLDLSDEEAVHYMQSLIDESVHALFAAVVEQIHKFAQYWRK
Description: ADP-Glo lipid kinase assay, PIK3C3. In kind it is biochemical. As to conditions: 10 µM compound. For orientation: ADP-Glo turns the ADP formed in a reaction into a luminescent signal.

Another data set addresses T2, PIK3CB/ PIK3R1 (Homo sapiens, UniProt P42338).
T2 construct: purchased Carna Biosciences Inc; Invitrogen Corporation
Description: ADP-Glo lipid kinase assay, PIK3CB/PIK3R1. As to conditions: 10 µM compound. In kind it is biochemical.

The target in a further data set is T3, PI4K2B (Homo sapiens, UniProt Q8TCG2).
T3 construct: purchased Carna Biosciences Inc; Invitrogen Corporation
T3 sequence (Q8TCG2 whole entry): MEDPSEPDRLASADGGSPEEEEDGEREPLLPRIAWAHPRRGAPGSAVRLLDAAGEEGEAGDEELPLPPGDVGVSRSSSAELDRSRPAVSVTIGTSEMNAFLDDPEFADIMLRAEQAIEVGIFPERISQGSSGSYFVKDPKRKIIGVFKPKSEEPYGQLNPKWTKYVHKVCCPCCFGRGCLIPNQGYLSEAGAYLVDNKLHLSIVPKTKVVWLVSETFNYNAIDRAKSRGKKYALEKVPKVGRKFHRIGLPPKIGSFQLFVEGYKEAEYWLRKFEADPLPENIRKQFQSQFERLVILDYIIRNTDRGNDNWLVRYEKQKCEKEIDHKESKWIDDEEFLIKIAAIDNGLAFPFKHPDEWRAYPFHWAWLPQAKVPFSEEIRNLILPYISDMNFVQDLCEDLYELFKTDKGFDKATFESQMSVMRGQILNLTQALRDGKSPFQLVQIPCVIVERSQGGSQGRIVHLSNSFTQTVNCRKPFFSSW
Description: ADP-Glo lipid kinase assay, PI4K2B. In kind it is biochemical. As to conditions: 10 µM compound.

The subject of another data set is MCF7 tumors. Description: Chick embryo CAM xenograft: tumor weight and metastasis. Particulars: every 48 h E10-E16, weighed E18. Format: in vivo. The procedure: All studies and procedures were conducted with prior approval of the Animal Ethics Committee of the University of Cape Town (FHS AEC REF NO:016/025) in accordance with the South African National Standard (SANS 10386:008) for the Care and Use of Animals for Scientific Purposes (SABS, 2015[71]), and guidelines from the Department of Health (2015[21]). Fertilized White Leghorn eggs were incubated at 37.5 °C with 50 % relative humidity for 9 days. At stage E9, the chorioallantoic membrane (CAM) was dropped by drilling a small hole through the eggshell into the air sac and a 1 cm^2 window was cut in the eggshell above the CAM. Cultured MCF7 cells were detached with trypsin, washed with complete medium and suspended in PBS. An inoculum of MCF7 cells was grafted onto the CAM of each E9 egg (21 eggs were used for each condition) and at E10, tumors were detectable. MCF7 tumors were treated every 48 h (E10, E12, E14, E16) by dropping 100 μl of vehicle (0.25 % DMSO in PBS), a reference compound (Paclitaxel), or MMV652103, onto the tumour. At E18 the upper portion of the CAM was removed, transferred to PBS and the tumors cut away from normal CAM tissue and weighed. A one-way ANOVA analysis with post-tests was done. In parallel, a 1 cm^2 portion of the lower CAM was collected to evaluate the number of metastatic cells. The relative amount of metastasis was calculated as follows: Tumor cells were grafted onto the upper chorioallantoic membrane (CAM) and during metastasis the cells invade the epithelium and basement membrane of the upper CAM and move through connective tissue into the vasculature into the lower CAM. The cells in the lower CAM are then harvested and genomic DNA is extracted and analyzed by qPCR with specific primers for Alu sequences which are only found in higher primates i.e. it allows for the distinction between human tumor cells and the host chick cells. Statistical analysis was directly performed on data from the Bio-Rad CFX Manager 3.1 software.

For the next data set, the system named is chick embryos. Description: Chick embryo CAM model: toxicity to the embryo. In kind it is in vivo. As to conditions: 4.4 μM and 22 μM. The text has this:
At stage E9, the chorioallantoic membrane (CAM) was dropped by drilling a small hole through the eggshell into the air sac and a 1 cm^2 window was cut in the eggshell above the CAM. Cultured MCF7 cells were detached with trypsin, washed with complete medium and suspended in PBS. […] At E18 the upper portion of the CAM was removed, transferred to PBS and the tumors cut away from normal CAM tissue and weighed. A one-way ANOVA analysis with post-tests was done. In parallel, a 1 cm^2 portion of the lower CAM was collected to evaluate the number of metastatic cells. The relative amount of metastasis was calculated as follows: Tumor cells were grafted onto the upper chorioallantoic membrane (CAM) and during metastasis the cells invade the epithelium and basement membrane of the upper CAM and move through connective tissue into the vasculature into the lower CAM. The cells in the lower CAM are then harvested and genomic DNA is extracted and analyzed by qPCR with specific primers for Alu sequences which are only found in higher primates i.e. it allows for the distinction between human tumor cells and the host chick cells. Statistical analysis was directly performed on data from the Bio-Rad CFX Manager 3.1 software.

T2 sequence (P42338 whole entry): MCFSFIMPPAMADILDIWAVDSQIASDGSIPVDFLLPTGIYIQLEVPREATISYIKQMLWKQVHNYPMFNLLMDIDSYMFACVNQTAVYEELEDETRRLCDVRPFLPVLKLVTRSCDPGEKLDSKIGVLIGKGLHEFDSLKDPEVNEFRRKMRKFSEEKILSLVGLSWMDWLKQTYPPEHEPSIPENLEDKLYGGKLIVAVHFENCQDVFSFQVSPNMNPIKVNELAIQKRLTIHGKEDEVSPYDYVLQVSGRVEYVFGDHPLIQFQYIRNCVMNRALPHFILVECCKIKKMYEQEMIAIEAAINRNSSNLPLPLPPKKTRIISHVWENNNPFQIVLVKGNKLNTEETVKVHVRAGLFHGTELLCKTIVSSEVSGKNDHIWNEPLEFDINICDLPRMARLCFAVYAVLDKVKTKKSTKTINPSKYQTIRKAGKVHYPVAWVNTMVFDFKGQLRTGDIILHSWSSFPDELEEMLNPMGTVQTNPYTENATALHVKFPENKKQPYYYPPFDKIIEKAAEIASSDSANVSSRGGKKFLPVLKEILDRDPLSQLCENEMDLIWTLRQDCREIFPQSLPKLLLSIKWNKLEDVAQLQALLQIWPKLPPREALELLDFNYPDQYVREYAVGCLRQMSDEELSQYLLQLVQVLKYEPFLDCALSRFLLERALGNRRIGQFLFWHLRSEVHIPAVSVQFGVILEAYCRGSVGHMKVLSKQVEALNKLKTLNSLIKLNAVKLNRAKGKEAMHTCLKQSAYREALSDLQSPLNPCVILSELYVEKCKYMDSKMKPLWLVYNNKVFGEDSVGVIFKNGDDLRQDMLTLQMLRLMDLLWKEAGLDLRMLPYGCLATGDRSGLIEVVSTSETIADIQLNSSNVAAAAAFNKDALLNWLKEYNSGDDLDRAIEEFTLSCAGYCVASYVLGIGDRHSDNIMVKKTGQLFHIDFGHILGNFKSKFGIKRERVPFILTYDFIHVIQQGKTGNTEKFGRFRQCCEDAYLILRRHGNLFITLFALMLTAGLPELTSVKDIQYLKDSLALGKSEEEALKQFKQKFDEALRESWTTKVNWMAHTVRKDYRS
T2 sequence (P27986 whole entry partner): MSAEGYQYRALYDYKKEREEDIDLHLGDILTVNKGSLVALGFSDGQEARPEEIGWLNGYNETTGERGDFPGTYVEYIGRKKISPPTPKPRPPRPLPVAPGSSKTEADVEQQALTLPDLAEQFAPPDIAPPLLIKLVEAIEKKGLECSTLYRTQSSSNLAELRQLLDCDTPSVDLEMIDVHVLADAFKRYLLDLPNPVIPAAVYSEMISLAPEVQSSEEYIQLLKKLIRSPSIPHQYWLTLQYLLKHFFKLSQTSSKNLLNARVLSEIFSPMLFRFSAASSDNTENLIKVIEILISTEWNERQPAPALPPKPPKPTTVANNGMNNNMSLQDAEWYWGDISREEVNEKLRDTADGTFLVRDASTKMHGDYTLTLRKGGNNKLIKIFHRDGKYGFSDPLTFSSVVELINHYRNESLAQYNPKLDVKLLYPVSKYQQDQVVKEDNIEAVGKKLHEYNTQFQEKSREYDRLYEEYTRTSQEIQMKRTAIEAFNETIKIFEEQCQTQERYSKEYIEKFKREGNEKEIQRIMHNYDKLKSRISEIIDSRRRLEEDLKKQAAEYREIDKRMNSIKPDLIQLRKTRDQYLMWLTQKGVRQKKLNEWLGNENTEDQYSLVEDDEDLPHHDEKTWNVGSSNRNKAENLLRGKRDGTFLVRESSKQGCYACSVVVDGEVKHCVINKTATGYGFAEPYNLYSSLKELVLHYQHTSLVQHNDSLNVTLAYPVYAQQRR

The IC50 is the concentration that gives 50% inhibition. For orientation: remaining activity means the activity still measured, relative to the control. Regarding `CS(=O)(=O)c1ccc(-c2cnc3ccc(-c4cccc(S(C)(=O)=O)c4)nn23)cc1` [MMV652103], in data set [1], the IC50 at 48 h turned out to be 6.64 µM. Further, the IC50 in data set [2] is 6.6 ± 1.07 µM; in data set [3] (Fig 2C summary, MTT 48 h, read-out: IC50 ± SEM FG0), more than 10 µM; in data set [3] (MTT, 48 h, exact IC50 not reached, predicted, read-out: IC50 FG0), more than 10 µM. In addition, the remaining activity at 10 µM on PIK3C3 was found to be 24%; on PIK3CB/ PIK3R1, 19%; at PI4K2B, 50%. Also, the tumor weight reduction in the data set with MCF7 tumors (4.4 μM) came out at 34.89%; with MCF7 tumors (22 μM), 41.71%. Further, the “death ratio of chick embryos” value in the data set on chick embryos is given as “did not result in an abnormal death ratio”. Moreover, the “macroscopic abnormalities of chick embryos” value in the data set with chick embryos (results not shown) is listed as “nor did it lead to any macroscopic abnormalities”.

The values above are taken from article PMC9149975, “The diaryl-imidazopyridazine anti-plasmodial compound, MMV652103, exhibits anti-breast cancer activity” (EXCLI Journal, 2022).
